{"source": "patent US12522596B2", "about": "“Compounds as GLP-1R agonists” (Terns Pharmaceuticals, Inc., priority 2021, dated 2026)", "assay": "Pharmacokinetics in hGLP-1R mice after oral dosing", "format": "in vivo, male C57BL/6J hGLP-1R mouse", "description": "IPGTT (120 min)—PK bleeding: 40 μL blood samples (all treatment groups) were collected from mice under the jaw at IPGTT-120 min after blood glucose measurement into pre-chilled EDTA-2K tubes. Blood samples were processed for plasma by centrifugation at 4° C., 3200×g for 10 min. 15 μL plasma was stored at −80° C. for PK analysis. From 4 mice in Group 7 of the PD cohort, whole brain was collected after blood is harvested at 120 min post dose, rinsed with saline and patted dry and placed into a pre-weighed tube and stored at −80° C. collected for PK analysis.\nPK bleeding group design is described in Table 9.\nPK bleeding: 30 μL blood was collected at 0.25, 0.5, 1, 2, 4, and 8 h. Blood samples were processed for plasma by centrifugation at 4° C., 3200×g for 10 min. 12 μL plasma was collected at −80° C. for further analysis. From 3 mice in Group 7 of the PK cohort, whole brain was collected after blood is harvested at 8 hr post dose, rinsed with saline and patted dry and placed into a pre-weighed tube and stored at −80° C. collected for PK analysis.\nFor plasma: An aliquot of 3 μL sample was protein precipitated with 60 μL internal standard (100 ng/mL Labetalol & 100 ng/ml Dexamethasone & 100 ng/ml Tolbutamide & 100 ng/mL Verapamil & 100 ng/ml Glyburide & 100 ng/ml Celecoxib in ACN) and then the mixture was vortex-mixed for 10 min at 800 rpm and centrifuged for 15 min at 3220×g, 4° C.\nThe linear/log trapezoidal rule was applied in obtaining the PK parameters. Individual plasma concentration values that were below the lower limit of quantitation (LOQ) were excluded from the PK parameter calculation. The nominal dose levels and nominal sampling times were used in the calculation of all pharmacokinetic parameters.", "key": {"[1]": {"conditions": "hGLP-1R mouse plasma, PO 0.3 mg/kg, individual mice, 0.3 mg/kg"}, "[2]": {"conditions": "hGLP-1R mouse plasma, PO 0.3 mg/kg, mean"}, "[3]": {"conditions": "hGLP-1R mouse plasma, PO 1 mg/kg, individual mice, 1 mg/kg"}, "[4]": {"conditions": "hGLP-1R mouse plasma, PO 1 mg/kg, mean"}}, "note": "Several values for one entry are separate records, joined by “and”; a condition that tells them apart may be missing. Equal entries are not always repeated. Where two headings read alike, the source gives them in different places. Marks after values point to notes of the source that are not given here."}
{"compound": "N#Cc1ccc(COc2cccc(C3CCN(Cc4nc5ccc(C(=O)O)cc5n4C[C@@H]4CCO4)CC3)n2)c(F)c1", "note": "[Reference Compound A, reference compound]", "values": [{"measurement": "increase of exposure with dose (dose proportionality)", "setting": "hGLP-1R mice, PO, Reference Compound A 0.3-1 mg/kg, Compound 2 0.3-3 mg/kg", "result": "approximately dose proportional manner"}, {"measurement": "Concentration", "setting": "hGLP-1R mouse plasma collected at 120 min (IPGTT cohort), PO 0.3 mg/kg, individual animals, 0.3 mg/kg", "result": "8.61 ng/mL and 8.10 ng/mL and 5.55 ng/mL and 7.19 ng/mL and 6.60 ng/mL and 6.14 ng/mL"}, {"measurement": "Concentration", "setting": "hGLP-1R mouse plasma collected at 120 min (IPGTT cohort), PO 1 mg/kg, individual animals, 1 mg/kg", "result": "29.7 ng/mL and 31.0 ng/mL and 17.9 ng/mL and 14.2 ng/mL and 15.9 ng/mL and 14.9 ng/mL and 26.5 ng/mL"}, {"measurement": "Concentration", "setting": "hGLP-1R mouse plasma, PO 0.3 mg/kg, 0.25 h, individual animals, 0.3 mg/kg", "result": "11.2 ng/mL and 16.7 ng/mL and 46.8 ng/mL"}, {"measurement": "Concentration", "setting": "hGLP-1R mouse plasma, PO 0.3 mg/kg, 0.5 h, individual animals, 0.3 mg/kg", "result": "17.6 ng/mL and 14.6 ng/mL"}, {"measurement": "Concentration", "setting": "hGLP-1R mouse plasma, PO 0.3 mg/kg, 1 h, individual animals, 0.3 mg/kg", "result": "13.4 ng/mL and 23.5 ng/mL and 11.1 ng/mL"}, {"measurement": "Concentration", "setting": "hGLP-1R mouse plasma, PO 0.3 mg/kg, 2 h, individual animals, 0.3 mg/kg", "result": "2.43 ng/mL and 4.91 ng/mL and 2.76 ng/mL"}, {"measurement": "Concentration", "setting": "hGLP-1R mouse plasma, PO 0.3 mg/kg, 4 h, individual animals, 0.3 mg/kg", "result": "BQL"}, {"measurement": "Concentration", "setting": "hGLP-1R mouse plasma, PO 0.3 mg/kg, 8 h, individual animals", "result": "BQL"}, {"measurement": "Tlast", "setting": "hGLP-1R mouse plasma, PO 0.3 mg/kg, individual mice", "result": 2.00, "unit": "h"}, {"measurement": "AUC0-inf", "setting": "[1]", "result": "22.9 ng·h/mL and 40.5 ng·h/mL and 19.4 ng·h/mL"}, {"measurement": "AUC0-last", "setting": "[1]", "result": "21.2 ng·h/mL and 35.4 ng·h/mL and 17.0 ng·h/mL"}, {"measurement": "AUCExtra", "setting": "[1]", "result": "7.39% and 12.7% and 12.4%"}, {"measurement": "AUMCExtra", "setting": "[1]", "result": "21.1% and 35.8% and 32.0%"}, {"measurement": "Cmax", "setting": "[1]", "result": "19.6 ng/mL and 46.8 ng/mL and 14.6 ng/mL"}, {"measurement": "MRT0-inf", "setting": "[1]", "result": "1.08 h and 1.11 h"}, {"measurement": "MRT0-last", "setting": "[1]", "result": "0.797 h and 0.861 h"}, {"measurement": "T1/2", "setting": "[1]", "result": "0.727* h and 0.602 h"}, {"measurement": "Tmax", "setting": "[1]", "result": 0.250, "unit": "h"}, {"measurement": "AUCExtra", "setting": "[2]", "result": 10.8, "unit": "%"}, {"measurement": "AUMCExtra", "setting": "[2]", "result": 29.6, "unit": "%"}, {"measurement": "Tlast", "setting": "[2]", "result": 2.00, "unit": "h"}, {"measurement": "Concentration", "setting": "hGLP-1R mouse plasma, PO 1 mg/kg, 0.25 h, individual animals, 1 mg/kg", "result": "31.9 ng/mL and 31.8 ng/mL"}, {"measurement": "Concentration", "setting": "hGLP-1R mouse plasma, PO 1 mg/kg, 0.5 h, individual animals, 1 mg/kg", "result": "40.2 ng/mL and 41.2 ng/mL"}, {"measurement": "Concentration", "setting": "hGLP-1R mouse plasma, PO 1 mg/kg, 1 h, individual animals, 1 mg/kg", "result": "48.7 ng/mL and 23.7 ng/mL and 46.0 ng/mL"}, {"measurement": "Concentration", "setting": "hGLP-1R mouse plasma, PO 1 mg/kg, 2 h, individual animals, 1 mg/kg", "result": "22.4 ng/mL and 5.72 ng/mL and 15.4 ng/mL"}, {"measurement": "Concentration", "setting": "hGLP-1R mouse plasma, PO 1 mg/kg, 4 h, individual animals, 1 mg/kg", "result": "BQL and 3.21 ng/mL"}, {"measurement": "Concentration", "setting": "hGLP-1R mouse plasma, PO 1 mg/kg, 8 h, individual animals", "result": "BQL"}, {"measurement": "AUC0-inf", "setting": "[3]", "result": "86.4 ng·h/mL and 89.9 ng·h/mL"}, {"measurement": "AUC0-last", "setting": "[3]", "result": "68.7 ng·h/mL and 86.7 ng·h/mL"}, {"measurement": "AUCExtra", "setting": "[3]", "result": "3.91% and 20.5% and 3.54%"}, {"measurement": "AUMCExtra", "setting": "[3]", "result": "13.8% and 58.3% and 18.2%"}, {"measurement": "Cmax", "setting": "[3]", "result": "40.2 ng/mL and 46.0 ng/mL"}, {"measurement": "MRT0-inf", "setting": "[3]", "result": "1.45 h and 4.55 h and 2.05 h"}, {"measurement": "MRT0-last", "setting": "[3]", "result": "2.39 h and 1.74 h"}, {"measurement": "T1/2", "setting": "[3]", "result": "0.791 h and 3.42* h and 1.77* h"}, {"measurement": "Tlast", "setting": "[3]", "result": "4.00 h and 8.00 h (2×)"}, {"measurement": "Tmax", "setting": "[3]", "result": 1.00, "unit": "h"}, {"measurement": "AUCExtra", "setting": "[4]", "result": 9.32, "unit": "%"}, {"measurement": "AUMCExtra", "setting": "[4]", "result": 30.1, "unit": "%"}, {"measurement": "AUC(0-t)", "setting": "male, C57BL/6J hGLP-1R, mouse, plasma, po, 0.3 mg/kg, hGLP-1R mice, total, PO 0.3 mg/kg, read-out: AUClast Mean", "result": 24.5, "unit": "ng·h/mL"}, {"measurement": "Cmax", "setting": "male, C57BL/6J hGLP-1R, mouse, plasma, po, 0.3 mg/kg, hGLP-1R mice, total, PO 0.3 mg/kg, read-out: Cmax Mean", "result": 27, "unit": "ng/mL"}, {"measurement": "half-life", "setting": "male, C57BL/6J hGLP-1R, mouse, plasma, po, 0.3 mg/kg, hGLP-1R mice, total, PO 0.3 mg/kg, read-out: T1/2 (converted)", "result": 0.604, "unit": "h"}, {"measurement": "Tmax", "setting": "male, C57BL/6J hGLP-1R, mouse, plasma, po, 0.3 mg/kg, hGLP-1R mice, total, PO 0.3 mg/kg, read-out: Tmax Median", "result": 0.5, "unit": "h"}, {"measurement": "concentration at 120 min", "setting": "male, C57BL/6J hGLP-1R, mouse, plasma, po, 0.3 mg/kg, hGLP-1R mouse plasma collected at 120 min (IPGTT cohort), PO 0.3 mg/kg, individual animals, read-out: Concentration", "result": 7.91, "unit": "ng/mL"}]}
